Assay: Stability of Tc-99m labeled compound, labeling purity by HPLC
Assay type: physicochemical
Conditions: for radiochemical purity: cysteine and VB1, until 4 hours (Table 5)
Protocol: 2 mL of Tc-99m was added dropwise to a lyophilized vial including 0.1 mg of GP-104, 15 μg of SnCl2, and 10 μg of cysteine, the vial was allowed to stand at room temperature for 10 minutes, and the reaction was terminated by adjusting pH to 7 using a NaOH solution. Labeling purity was confirmed to be 93.21% by HPLC (analysis conditions: Luna C18 250×4.6 mm, phosphate buffer:acetonitrile (100:0, 0 to 5 minutes; 80:20, 5 to 10 minutes; 80:20, 17 minutes; 100:0, 17.1 minutes). 100:0. 20 min), 1.0 mL/min, UV=280 nm).
In order to confirm the effect of cysteine addition after the reaction, the following experiment was performed: 0.1 mg of GP-104 was dissolved in water for injection, the pH was adjusted to about 3.5 when 10 μL of SnCl2 (1.5 mg/mL) and 2 mL of Tc-99m were added thereto, and the resulting mixture was allowed to stand at room temperature for 10 minutes. The reaction was terminated by adjusting the pH to 7 using a NaOH solution and 10 μL of cysteine (1.0 mg/mL). Labeling purity was confirmed to be 91.4% using HPLC in the same manner as in Example 2-7.
After 0.1 mg of GP-104 was dissolved in water for injection, pH was adjusted to about 3.5 and the resulting solution was allowed to stand at room temperature for 10 minutes when 10 μL of SnCl2 (1.5 mg/mL), 10 μL of cysteine (1.0 mg/mL) and 2 mL of Tc-99m were added thereto, and the reaction was terminated by adjusting the pH to 7 using a NaOH solution. Labeling purity was confirmed to be 94.84% using HPLC in the same manner as in Example 2-7.
HCl and NaOH was additionally added dropwise to the solution of Example 2-8 to perform a stability evaluation by adjusting the final pH of the solution to acidic (pH 5.5) and basic (pH 8.5) conditions, and labeling purity was confirmed using HPLC in the same manner as in Example 2-7.
HCl and NaOH was additionally added dropwise to the solution of Example 2-9 to perform a stability evaluation by adjusting the final pH of the solution to acidic (pH 5.5) and basic (pH 8.5) conditions, and labeling purity was confirmed using HPLC in the same manner as in Example 2-7.
HCl and NaOH was additionally added dropwise to the solution of Example 2-10 to perform a stability evaluation by adjusting the final pH of the solution to acidic (pH 5.5) and basic (pH 8.5) conditions, and labeling purity was confirmed using HPLC in the same manner as in Example 2-7.
0.1 mg of GP-105 was dissolved in water for injection, the pH was adjusted to about 3.5 when 10 μL of SnCl2 (1.5 mg/mL) and 2 mL of Tc-99m were added thereto, and the resulting mixture was allowed to stand at room temperature for 10 minutes. The reaction was terminated by adjusting the pH to 7 using a NaOH solution and 10 μL of cysteine (1.0 mg/mL). Labeling purity was confirmed to be 98.1% using HPLC in the same manner as in Example 2-7.
HCl and NaOH was additionally added dropwise to the solution of Example 2-12 to perform a stability evaluation by adjusting the final pH of the solution to acidic (pH 5.5) and basic (pH 8.5) conditions, and labeling purity was confirmed using HPLC in the same manner as in Example 2-7.
HCl and NaOH was additionally added dropwise to the solution of Example 2-13 to perform a stability evaluation by adjusting the final pH of the solution to acidic (pH 5.5) and basic (pH 8.5) conditions, and labeling purity was confirmed using HPLC in the same manner as in Example 2-7.
HCl and NaOH was additionally added dropwise to the solution of Example 2-14 to perform a stability evaluation by adjusting the final pH of the solution to acidic (pH 5.5) and basic (pH 8.5) conditions, and labeling purity was confirmed using HPLC in the same manner as in Example 2-7.

Purity (165 nmol cysteine, acidic conditions, after 2 hours (Table 4)): ≤ 90% | Purity (165 nmol cysteine, basic conditions, until 2 hours (Table 4)): < 90% | Purity (165 nmol cysteine, neutral conditions, even after 4 hours (Table 4)): ≥ 90% | purity (HPLC) (Ex 3-3, addition of cysteine after reaction, pH 3, 0 hour): 82.63% | purity (HPLC) (Ex 3-3, addition of cysteine after reaction, pH 3, 1 hour): 70.01% | purity (HPLC) (Ex 3-3, addition of cysteine after reaction, pH 3, 2 hours): 52.58% | purity (HPLC) (Ex 3-3, addition of cysteine after reaction, pH 3, 4 hours): 30.38% | purity (HPLC) (Ex 3-3, addition of cysteine after reaction, pH 7, 0 hour): 91.4% | purity (HPLC) (Ex 3-3, addition of cysteine after reaction, pH 7, 1 hour): 91.42% | purity (HPLC) (Ex 3-3, addition of cysteine after reaction, pH 7, 2 hours): 91.1% | purity (HPLC) (Ex 3-3, addition of cysteine after reaction, pH 7, 3 hours): 90.3% | purity (HPLC) (Ex 3-3, addition of cysteine after reaction, pH 7, 4 hours): 90.19% | purity (HPLC) (Ex 3-3, addition of cysteine before reaction, pH 3, 1 hour): 92.7% | purity (HPLC) (Ex 3-3, addition of cysteine before reaction, pH 3, 2 hours): 84.17% | purity (HPLC) (Ex 3-3, addition of cysteine before reaction, pH 3, 3 hours): 76.77% | purity (HPLC) (Ex 3-3, addition of cysteine before reaction, pH 3, 4 hours): 69.34% | purity (HPLC) (Ex 3-3, addition of cysteine before reaction, pH 7, 0 hour): 94.84% | purity (HPLC) (Ex 3-3, addition of cysteine before reaction, pH 7, 1 hour): 94.43% | purity (HPLC) (Ex 3-3, addition of cysteine before reaction, pH 7, 2 hours): 97.66% | purity (HPLC) (Ex 3-3, addition of cysteine before reaction, pH 7, 4 hours): 97.75% | radiochemical purity (acidic conditions): ≥ 90% | radiochemical purity (basic conditions): ≥ 80% | radiochemical purity (pH of 7): ≥ 98% | Purity (pH of 7 regardless of the timing of cysteine addition, even after 4 hours (text to Table 3)): ≥ 90% | purity (HPLC) (solution of Example 2-8 (165 nmol cysteine), pH 5.5, 0 hr): 95.26% | purity (HPLC) (solution of Example 2-8 (165 nmol cysteine), pH 5.5, 2 hr): 91.45% | purity (HPLC) (solution of Example 2-8 (165 nmol cysteine), pH 5.5, 4 hr): 89.28% | purity (HPLC) (solution of Example 2-8 (165 nmol cysteine), pH 7, 0 hr): 95.26% | purity (HPLC) (solution of Example 2-8 (165 nmol cysteine), pH 7, 2 hr): 91.19% | purity (HPLC) (solution of Example 2-8 (165 nmol cysteine), pH 7, 4 hr): 91.61% | purity (HPLC) (solution of Example 2-8 (165 nmol cysteine), pH 8.5, 0 hr): 95.26% | purity (HPLC) (solution of Example 2-8 (165 nmol cysteine), pH 8.5, 2 hr): 79.83% | purity (HPLC) (solution of Example 2-8 (165 nmol cysteine), pH 8.5, 4 hr): 51.77% | radiochemical purity (HPLC) (solution of Example 2-9 (82.5 nmol cysteine + 82.5 nmol VB1), pH 5.5, 0 hr): 100% | radiochemical purity (HPLC) (solution of Example 2-9 (82.5 nmol cysteine + 82.5 nmol VB1), pH 5.5, 2 hr): 92.72% | radiochemical purity (HPLC) (solution of Example 2-9 (82.5 nmol cysteine + 82.5 nmol VB1), pH 5.5, 4 hr): 91.20% | radiochemical purity (HPLC) (solution of Example 2-9 (82.5 nmol cysteine + 82.5 nmol VB1), pH 7, 0 hr): 100% | radiochemical purity (HPLC) (solution of Example 2-9 (82.5 nmol cysteine + 82.5 nmol VB1), pH 7, 2 hr): 98.63% | radiochemical purity (HPLC) (solution of Example 2-9 (82.5 nmol cysteine + 82.5 nmol VB1), pH 7, 4 hr): 98.18% | radiochemical purity (HPLC) (solution of Example 2-9 (82.5 nmol cysteine + 82.5 nmol VB1), pH 8.5, 0 hr): 100% | radiochemical purity (HPLC) (solution of Example 2-9 (82.5 nmol cysteine + 82.5 nmol VB1), pH 8.5, 2 hr): 83.08% | radiochemical purity (HPLC) (solution of Example 2-9 (82.5 nmol cysteine + 82.5 nmol VB1), pH 8.5, 4 hr): 80.97% | radiochemical purity (HPLC) (solution of Example 2-10 (82.5 nmol cysteine + 82.5 nmol VB6), pH 5.5, 0 hr): 97.24% | radiochemical purity (HPLC) (solution of Example 2-10 (82.5 nmol cysteine + 82.5 nmol VB6), pH 5.5, 2 hr): 90.29% | radiochemical purity (HPLC) (solution of Example 2-10 (82.5 nmol cysteine + 82.5 nmol VB6), pH 5.5, 4 hr): 90.65% | radiochemical purity (HPLC) (solution of Example 2-10 (82.5 nmol cysteine + 82.5 nmol VB6), pH 7, 0 hr): 97.24% | radiochemical purity (HPLC) (solution of Example 2-10 (82.5 nmol cysteine + 82.5 nmol VB6), pH 7, 2 hr): 95.61% | radiochemical purity (HPLC) (solution of Example 2-10 (82.5 nmol cysteine + 82.5 nmol VB6), pH 7, 4 hr): 96.25% | radiochemical purity (HPLC) (solution of Example 2-10 (82.5 nmol cysteine + 82.5 nmol VB6), pH 8.5, 0 hr): 97.24% | radiochemical purity (HPLC) (solution of Example 2-10 (82.5 nmol cysteine + 82.5 nmol VB6), pH 8.5, 2 hr): 95.61% | radiochemical purity (HPLC) (solution of Example 2-10 (82.5 nmol cysteine + 82.5 nmol VB6), pH 8.5, 4 hr): 91.19% | radiochemical purity (HPLC) (solution of Example 2-14 (82.5 nmol cysteine + 82.5 nmol VB6), pH 5.5, 0 hr): 100% | radiochemical purity (HPLC) (solution of Example 2-14 (82.5 nmol cysteine + 82.5 nmol VB6), pH 5.5, 2 hr): 97.24% | radiochemical purity (HPLC) (solution of Example 2-14 (82.5 nmol cysteine + 82.5 nmol VB6), pH 5.5, 4 hr): 95.61% | radiochemical purity (HPLC) (solution of Example 2-14 (82.5 nmol cysteine + 82.5 nmol VB6), pH 7, 0 hr): 100% | radiochemical purity (HPLC) (solution of Example 2-14 (82.5 nmol cysteine + 82.5 nmol VB6), pH 7, 2 hr): 98.56% | radiochemical purity (HPLC) (solution of Example 2-14 (82.5 nmol cysteine + 82.5 nmol VB6), pH 7, 4 hr): 98.2% | radiochemical purity (HPLC) (solution of Example 2-14 (82.5 nmol cysteine + 82.5 nmol VB6), pH 8.5, 0 hr): 100% | radiochemical purity (HPLC) (solution of Example 2-14 (82.5 nmol cysteine + 82.5 nmol VB6), pH 8.5, 2 hr): 92.21% | radiochemical purity (HPLC) (solution of Example 2-14 (82.5 nmol cysteine + 82.5 nmol VB6), pH 8.5, 4 hr): 89.62%
Structure (SMILES): O=C(O)C[C@H](NC(=O)[C@@H]1CCCN(C(=O)CCC2CCNCC2)C1)c1cncc(OCCNC(=O)CN2CCN3CCN(CC(=O)O)CC(=O)[O][99Tc+]([O]C(=O)C3)[O]C(=O)C2)c1 [[Tc-99m]GP-104]

— patent US12527886B2, “Radiopharmaceuticals and composition for thrombus imaging” (THE ASAN FOUNDATION, priority 2020, dated 2026)
